US9808003B2, “Herbicidally active 2-(substituted-phenyl)-cyclopentane-1,3-dione compounds and derivatives thereof” (Syngenta Limited, priority 2013, dated 2017)

Key:
Assay type in all cases: in vivo
[1] = tested on: Winter Wheat “Hereward”; assay: Test 1B glasshouse assay, post-emergence herbicidal activity against cereal crops
Experimental: (§1) Biological Example 1B tests the herbicidal activity of“technical” compounds (i.e. compounds not previously formulated before the test), as the herbicides under test.
(§2) An “instant formulation”, known as the “IF50”, containing 50 g/liter (i.e. 5% w/v) of the “technical” (i.e. unformulated) active ingredient (i.e. the herbicide under test), is prepared by dissolving the active ingredient in a mixture of organic solvents and emulsifier, details of which are provided in the Table below.
(§3) This IF50 is mixed with a small, variable amount of acetone to aid dissolution, before addition of a 0.5% v/v aqueous solution of the adjuvant Adigor™ (an adjuvant containing rapeseed oil methyl ester, ethoxylated alcohols, and a mixture of heavy aromatic hydrocarbons, e.g. available from Syngenta), as the aqueous diluent, to form an aqueous spray solution which contains a predetermined concentration of the active ingredient (which varies depending on the application rate of the active ingredient to the plants) and 0.5% v/v of the adjuvant Adigor™. This aqueous spray solution is suitable for spraying onto plants.
(§4) Seeds of a variety of test species are sown in standard soil in pots. After cultivation for 14 days under controlled conditions in a glasshouse (at 22/16° C., day/night; 16 hours light; 65% humidity), the plants are sprayed post-emergence with the above-mentioned aqueous spray solution containing inter alia the “technical” active ingredient (i.e. the herbicide under test) and the adjuvant Adigor™.
(§5) The test plants are then grown on under controlled conditions in the glasshouse (at 22/16° C., day/night; 16 hours light; 65% humidity) and are watered twice daily. 14 days after application of the test herbicide, the test is evaluated visually for percentage phytotoxicity to the plant (where 100%=total damage to plant; 0%=no damage to plant).
(§6) More specifically, post-emergence herbicidal activity (phytotoxicity) data, on certain tested grassy monocotyledonous weeds (and/or plants of the type Gramineae) and cereal crops in the glasshouse, are measured 14 days after application of the herbicide (14 DAA), typically for inter alia one or more of the following application rates: • (a) a post-emergence application rate of 60 g/ha of the test herbicide with or without 50 g/ha of cloquintocet-mexyl safener, and • (b) a post-emergence application rate of 90 g/ha of the test herbicide with 50 g/ha of cloquintocet-mexyl safener, and • (c) a post-emergence application rate of 120 g/ha of the test herbicide with 50 g/ha of cloquintocet-mexyl safener.
(§7) The cloquintocet-mexyl, when used, is present in the formulation containing the herbicide under test dissolved in acetone plus IF50.
(§8) The range of herbicide application rates tested sometimes includes application rates other than those shown above, and the rates can vary depending on the herbicide under test.
(§9) Herbicidal activity (phytotoxicity) is evaluated visually, and an assessed percentage phytotoxicity score is given for each herbicidal application on each plant species (with 100%=total damage to plant; 0%=no damage to plant; the assessment is recorded in increments of 1%). Two replicates are made for each experiment, and the mean herbicidal activity (phytotoxicity) data is reported.

[2] = tested on: Spring Barley “Harrington”; assay: as above
Experimental: as §1, §2, §3, §4, §5, §6, §7, §8, §9

[3] = tested on: Winter Barley “Suzuka”; assay: as above
Experimental: as §1, §2, §3, §4, §5, §6, §7, §8, §9

[4] = tested on: Lolium multiflorum (LOLMU); assay: Test 1B glasshouse assay, post-emergence herbicidal activity against grassy weeds; settings: 14 DAA
Experimental: as §1, §2, §3, §4, §5, §6, §7, §8, §9
(§10) For compounds A34, A98, A99, A87, A100, A101, A89, A120, A120A, A120B, A23, A127, A128, A89, A112 and A113 the tested weeds were as follows: Avena fatua (AVEFA), Lolium multiflorum (LOLMU), Setaria viridis (SETVI), Poa annua (POAAN), Alopecurus myosuroides (ALOMY). All five of these are grassy monocotyledonous weeds. Except for SETVI, these are all “cool-season” grassy monocotyledonous weeds.

[5] = tested on: Setaria viridis (SETVI); assay: as above; settings: 14 DAA
Experimental: as §1, §2, §3, §4, §5, §6, §7, §8, §9, §10

[6] = tested on: Avena fatua (AVEFA); assay: as above; settings: 14 DAA
Experimental: as §1, §2, §3, §4, §5, §6, §7, §8, §9, §10

[7] = tested on: Alopecurus myosuroides (ALOMY); assay: as above; settings: 14 DAA
Experimental: as §1, §2, §3, §4, §5, §6, §7, §8, §9, §10

[8] = tested on: Poa annua (POAAN); assay: as above; settings: 14 DAA
Experimental: as §1, §2, §3, §4, §5, §6, §7, §8, §9, §10

[9] = herbicide 30 g/ha, cloquintocet-mexyl 50 g/ha
[10] = herbicide 45 g/ha, cloquintocet-mexyl 50 g/ha
[11] = herbicide 60 g/ha, cloquintocet-mexyl 0 g/ha
[12] = herbicide 60 g/ha, cloquintocet-mexyl 50 g/ha
[13] = 30 g/ha herbicide, 50 g/ha cloquintocet-mexyl
[14] = 45 g/ha herbicide, 50 g/ha cloquintocet-mexyl
[15] = 60 g/ha herbicide, 0 g/ha cloquintocet-mexyl
[16] = 60 g/ha herbicide, 50 g/ha cloquintocet-mexyl

Structure (SMILES) | Percentage Phytotoxicity Winter Wheat “Hereward” [1, 9] [%] | Percentage Phytotoxicity Winter Wheat “Hereward” [1, 10] [%] | Percentage Phytotoxicity Winter Wheat “Hereward” [1, 11] [%] | Percentage Phytotoxicity Winter Wheat “Hereward” [1, 12] [%] | Percentage Phytotoxicity Spring Barley “Harrington” [2, 9] [%] | Percentage Phytotoxicity Spring Barley “Harrington” [2, 10] [%] | Percentage Phytotoxicity Spring Barley “Harrington” [2, 11] [%] | Percentage Phytotoxicity Spring Barley “Harrington” [2, 12] [%] | Percentage Phytotoxicity Winter Barley “Suzuka” [3, 9] [%] | Percentage Phytotoxicity Winter Barley “Suzuka” [3, 10] [%] | Percentage Phytotoxicity Winter Barley “Suzuka” [3, 11] [%] | Percentage Phytotoxicity Winter Barley “Suzuka” [3, 12] [%] | Post-emergence herbicidal activity, percentage phytotoxicity, LOLMU [4, 13] [%] | Post-emergence herbicidal activity, percentage phytotoxicity, LOLMU [4, 14] [%] | Post-emergence herbicidal activity, percentage phytotoxicity, LOLMU [4, 15] [%] | Post-emergence herbicidal activity, percentage phytotoxicity, LOLMU [4, 16] [%] | Post-emergence herbicidal activity, percentage phytotoxicity, SETVI [5, 13] [%] | Post-emergence herbicidal activity, percentage phytotoxicity, SETVI [5, 14] [%] | Post-emergence herbicidal activity, percentage phytotoxicity, SETVI [5, 15] [%] | Post-emergence herbicidal activity, percentage phytotoxicity, SETVI [5, 16] [%] | also measured
Cc1cc(C)c(C2C(=O)C[C@@H](CCNC(=O)c3ccc(Br)cn3)C2=O)c(C)c1 (stereo partly shown) [Compound A120A] | 53 | 60 | 73 | 65 | 30 | 60 | 85 | 73 | 23 | 75 | 93 | 83 | 97 | 100 | 100 | 100 | 100 | 100 | 100 | 100 | Post-emergence herbicidal activity, percentage phytotoxicity, AVEFA [6, 13]: 90%; Post-emergence herbicidal activity, percentage phytotoxicity, AVEFA [6, 14]: 95%; Post-emergence herbicidal activity, percentage phytotoxicity, AVEFA [6, 15]: 97%; Post-emergence herbicidal activity, percentage phytotoxicity, AVEFA [6, 16]: 97%; Post-emergence herbicidal activity, percentage phytotoxicity, ALOMY [7, 13]: 80%; Post-emergence herbicidal activity, percentage phytotoxicity, ALOMY [7, 14]: 88%; Post-emergence herbicidal activity, percentage phytotoxicity, ALOMY [7, 15]: 95%; Post-emergence herbicidal activity, percentage phytotoxicity, ALOMY [7, 16]: 90%; Post-emergence herbicidal activity, percentage phytotoxicity, POAAN [8, 13]: 3%; Post-emergence herbicidal activity, percentage phytotoxicity, POAAN [8, 14]: 5%; Post-emergence herbicidal activity, percentage phytotoxicity, POAAN [8, 15]: 30%; Post-emergence herbicidal activity, percentage phytotoxicity, POAAN [8, 16]: 10%
Cc1cc(C)c(C2C(=O)C[C@H](CCNC(=O)c3ccc(Br)cn3)C2=O)c(C)c1 (stereo partly shown) [Compound A120B] | 7 | 10 | 58 | 13 | 3 | 10 | 53 | 23 | 3 | 9 | 75 | 13 | 58 | 73 | 83 | 73 | 40 | 65 | 68 | 68 | Post-emergence herbicidal activity, percentage phytotoxicity, AVEFA [6, 13]: 3%; Post-emergence herbicidal activity, percentage phytotoxicity, AVEFA [6, 14]: 10%; Post-emergence herbicidal activity, percentage phytotoxicity, AVEFA [6, 15]: 38%; Post-emergence herbicidal activity, percentage phytotoxicity, AVEFA [6, 16]: 48%; Post-emergence herbicidal activity, percentage phytotoxicity, ALOMY [7, 13]: 43%; Post-emergence herbicidal activity, percentage phytotoxicity, ALOMY [7, 14]: 58%; Post-emergence herbicidal activity, percentage phytotoxicity, ALOMY [7, 15]: 73%; Post-emergence herbicidal activity, percentage phytotoxicity, ALOMY [7, 16]: 70%; Post-emergence herbicidal activity, percentage phytotoxicity, POAAN [8, 13]: 0%; Post-emergence herbicidal activity, percentage phytotoxicity, POAAN [8, 14]: 0%; Post-emergence herbicidal activity, percentage phytotoxicity, POAAN [8, 15]: 4%; Post-emergence herbicidal activity, percentage phytotoxicity, POAAN [8, 16]: 4%
